Assay results reported in ChEMBL document CHEMBL4725465 (ACS Med Chem Lett, 2020).
Where a SMILES comes first, the peptide text is derived from it. [ ]: non-standard residue; d: D form. The star is where a group is joined. Gly(N-(2R-Ph-propyl)) = C[C@@H](CNCC(=O)O)c1ccccc1; Piperidin1yl(4-NH2,4-COOH) = NC1(C(=O)O)CCN(*)CC1; N(Indan-2-yl)Gly = O=C(O)CNC1Cc2ccccc2C1; Gly(NCH2CH2Ph) = O=C(O)CNCCc1ccccc1; Morpholide = C1CN(*)CCO1; X1 = CNC(=O)NC1CCN(*)CC1

How the values were obtained:
[1] = target: Kappa-type opioid receptor (Homo sapiens, UniProt P41145); test: Agonist activity at human kappa opioid receptor expressed in HEK293 cells assessed as inhibition of forskolin-induced cAMP accumulation measured after 5 hrs by One-Glo luciferase assay; assay type: functional, cell-based
[2] = target: Delta-type opioid receptor (Homo sapiens, UniProt P41143); test: Agonist activity at human delta opioid receptor assessed as inhibition of forskolin-induced cAMP accumulation
Mu-type opioid receptor = Mu-type opioid receptor (Homo sapiens, UniProt P35372); test: Agonist activity at human mu opioid receptor assessed as inhibition of forskolin-induced cAMP accumulation; assay type: ADME
[3] = Half life in human liver microsomes; assay type: ADME, Microsome
[4] = Half life in rat liver microsomes; assay type: ADME, Microsome
[5] = Half life in mouse liver microsomes; assay type: ADME, Microsome
Cytochrome P450 1A2 = target: T1, Cytochrome P450 1A2 (Homo sapiens, UniProt P05177); test: Inhibition of CYP1A2 in human pooled liver microsomes using phenacetin as substrate measured up to 20 mins by UHPLC-MS/MS analysis; assay type: ADME
T1 sequence (P05177 whole entry): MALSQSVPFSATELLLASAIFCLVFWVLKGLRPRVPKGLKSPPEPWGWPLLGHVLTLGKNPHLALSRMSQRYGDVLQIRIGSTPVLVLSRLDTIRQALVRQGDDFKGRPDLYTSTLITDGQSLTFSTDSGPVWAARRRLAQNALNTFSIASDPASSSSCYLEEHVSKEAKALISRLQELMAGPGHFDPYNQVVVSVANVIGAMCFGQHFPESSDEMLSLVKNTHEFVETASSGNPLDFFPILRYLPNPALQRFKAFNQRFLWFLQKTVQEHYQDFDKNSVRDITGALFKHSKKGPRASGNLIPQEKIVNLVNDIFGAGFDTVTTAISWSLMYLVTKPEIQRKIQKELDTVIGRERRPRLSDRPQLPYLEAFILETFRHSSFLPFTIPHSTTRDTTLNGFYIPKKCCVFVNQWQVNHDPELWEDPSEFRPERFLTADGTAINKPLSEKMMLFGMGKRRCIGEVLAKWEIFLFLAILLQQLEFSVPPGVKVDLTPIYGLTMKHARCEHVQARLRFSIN

Cytochrome P450 2C9 = Cytochrome P450 2C9 (Homo sapiens, UniProt P11712); test: Inhibition of CYP2C9 in human pooled liver microsomes using tolbutamide as substrate measured up to 20 mins by UHPLC-MS/MS analysis; assay type: ADME
Cytochrome P450 2D6 = Cytochrome P450 2D6 (Homo sapiens, UniProt P10635); test: Inhibition of CYP2D6 in human pooled liver microsomes using dextromethorphan as substrate measured up to 20 mins by UHPLC-MS/MS analysis; assay type: ADME
Cytochrome P450 3A4 [6] = target: T2, Cytochrome P450 3A4 (Homo sapiens, UniProt P08684); test: Inhibition of CYP3A4 in human pooled liver microsomes using midazolam as substrate measured up to 20 mins by UHPLC-MS/MS analysis; assay type: ADME
Cytochrome P450 3A4 [7] = target: T2, Cytochrome P450 3A4; test: Inhibition of CYP3A4 in human pooled liver microsomes using testosterone as substrate measured up to 20 mins by UHPLC-MS/MS analysis; assay type: ADME
Cytochrome P450 2C19 = Cytochrome P450 2C19 (Homo sapiens, UniProt P33261); test: Inhibition of CYP2C19 in human pooled liver microsomes using S-mephenytoin as substrate measured up to 20 mins by UHPLC-MS/MS analysis; assay type: ADME
[8] = target: Voltage-gated inwardly rectifying potassium channel KCNH2 (Homo sapiens, UniProt Q12809); test: Inhibition of human ERG
[9] = Unbound fraction in Sprague-Dawley rat plasma at 1 mg/kg, iv; assay type: ADME, organism-based
[10] = Unbound fraction in Sprague-Dawley rat brain at 1 mg/kg, iv; assay type: ADME, organism-based
[11] = Drug concentration in Sprague-Dawley rat plasma at 1 mg/kg, iv; assay type: ADME, organism-based; conditions: in vivo
[12] = Drug concentration in Sprague-Dawley rat brain at 1 mg/kg, iv; assay type: ADME, organism-based; conditions: in vivo
[13] = Unbound brain-to-plasma concentration ratio in Sprague-Dawley rat at 1 mg/kg, iv; assay type: ADME, organism-based; conditions: read-out: K(p,uu,brain)
[14] = AUC (0 to t) in ICR mouse at 1 mg/kg, iv measured up to 24 hrs; assay type: ADME, organism-based; design: route intravenous, dose 1 mg/kg, time 24 hrs; conditions: in vivo
[15] = Half life in ICR mouse at 1 mg/kg, iv measured up to 24 hrs; assay type: ADME, organism-based; conditions: in vivo
[16] = Clearance in ICR mouse at 1 mg/kg, iv measured up to 24 hrs; assay type: ADME, organism-based; conditions: in vivo
[17] = Apparent volume of distribution in ICR mouse at 1 mg/kg, iv measured up to 24 hrs; assay type: ADME, organism-based; conditions: in vivo, read-out: Vz
[18] = AUC (0 to t) in Sprague-Dawley rat at 1 mg/kg, iv measured up to 24 hrs; assay type: ADME, organism-based; design: route intravenous, dose 1 mg/kg, time <=24; conditions: in vivo
[19] = Half life in Sprague-Dawley rat at 1 mg/kg, iv measured up to 24 hrs; assay type: ADME, organism-based; conditions: in vivo
[20] = Clearance in Sprague-Dawley rat at 1 mg/kg, iv measured up to 24 hrs; assay type: ADME, organism-based; conditions: in vivo
[21] = Apparent volume of distribution in Sprague-Dawley rat at 1 mg/kg, iv measured up to 24 hrs; assay type: ADME, organism-based; conditions: in vivo, read-out: Vz
[22] = AUC (0 to t) in Beagle dog at 0.5 mg/kg, iv measured up to 24 hrs; assay type: ADME, organism-based, Canis lupus familiaris; design: route intravenous, dose 0.5 mg/kg, time <=24; conditions: in vivo
[23] = Half life in Beagle dog at 0.5 mg/kg, iv measured up to 24 hrs; assay type: ADME, organism-based, Canis lupus familiaris; conditions: in vivo
[24] = Clearance in Beagle dog at 0.5 mg/kg, iv measured up to 24 hrs; assay type: ADME, organism-based, Canis lupus familiaris; conditions: in vivo
[25] = Apparent volume of distribution in Beagle dog at 0.5 mg/kg, iv measured up to 24 hrs; assay type: ADME, organism-based, Canis lupus familiaris; conditions: in vivo, read-out: Vz
Rattus norvegicus [26] = test: Antiinflammatory activity in carrageenan-induced pain in iv dosed Wistar rat model assessed as effect on hindpaw withdrawal threshold administered 4 hrs post-carrageenan challenge and measured for 30 mins after compound administration by Von-Frey test; assay type: functional, organism-based; conditions: dose mg/kg 0.03-0.3, time 30.0 min
Rattus norvegicus [27] = test: Antiinflammatory activity in carrageenan-induced pain in Wistar rat model assessed as effect on hindpaw withdrawal threshold at 0.03 to 0.3 mg/kg, iv administered 4 hrs post-carrageenan challenge and measured for 30 mins after compound administration by Von-Frey test relative to control; assay type: functional; conditions: dose mg/kg 0.03-0.3, 0.5 h
Rattus norvegicus [28] = test: Antiinflammatory activity in carrageenan-induced pain in Wistar rat model assessed as effect on hindpaw withdrawal threshold at 0.3 mg/kg, iv administered 4 hrs post-carrageenan challenge and measured for 30 mins after compound administration by Von-Frey test relative to control; assay type: functional; conditions: dose mg/kg 0.03-0.3, 0.5 h
[29] = Half life in dog liver microsomes; assay type: ADME, Canis lupus familiaris, Microsome

Kappa-type opioid receptor, sequence (P41145 whole entry): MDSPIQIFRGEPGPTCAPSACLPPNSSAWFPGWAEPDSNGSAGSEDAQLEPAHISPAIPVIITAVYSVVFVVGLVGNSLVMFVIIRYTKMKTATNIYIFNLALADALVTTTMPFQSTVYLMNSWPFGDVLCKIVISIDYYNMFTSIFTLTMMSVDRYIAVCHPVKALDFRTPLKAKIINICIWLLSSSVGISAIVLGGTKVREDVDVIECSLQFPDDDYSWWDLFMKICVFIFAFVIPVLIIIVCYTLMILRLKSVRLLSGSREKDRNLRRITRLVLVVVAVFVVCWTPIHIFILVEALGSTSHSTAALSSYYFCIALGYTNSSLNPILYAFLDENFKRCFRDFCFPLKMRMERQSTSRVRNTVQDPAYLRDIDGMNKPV
T2 sequence (P08684 whole entry): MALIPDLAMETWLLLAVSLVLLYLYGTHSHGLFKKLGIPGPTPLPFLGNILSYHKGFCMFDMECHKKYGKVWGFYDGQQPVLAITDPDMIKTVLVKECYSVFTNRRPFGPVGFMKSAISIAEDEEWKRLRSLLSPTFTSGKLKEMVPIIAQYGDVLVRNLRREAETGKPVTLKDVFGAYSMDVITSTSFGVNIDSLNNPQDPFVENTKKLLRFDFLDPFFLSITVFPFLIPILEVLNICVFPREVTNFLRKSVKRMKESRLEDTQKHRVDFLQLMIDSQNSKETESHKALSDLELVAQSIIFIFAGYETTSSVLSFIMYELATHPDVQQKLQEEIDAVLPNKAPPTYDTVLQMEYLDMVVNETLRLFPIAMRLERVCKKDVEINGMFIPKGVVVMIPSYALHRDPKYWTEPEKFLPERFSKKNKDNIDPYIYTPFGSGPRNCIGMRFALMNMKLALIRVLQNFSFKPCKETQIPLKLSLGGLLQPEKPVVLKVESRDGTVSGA
Voltage-gated inwardly rectifying potassium channel KCNH2, sequence (Q12809 whole entry): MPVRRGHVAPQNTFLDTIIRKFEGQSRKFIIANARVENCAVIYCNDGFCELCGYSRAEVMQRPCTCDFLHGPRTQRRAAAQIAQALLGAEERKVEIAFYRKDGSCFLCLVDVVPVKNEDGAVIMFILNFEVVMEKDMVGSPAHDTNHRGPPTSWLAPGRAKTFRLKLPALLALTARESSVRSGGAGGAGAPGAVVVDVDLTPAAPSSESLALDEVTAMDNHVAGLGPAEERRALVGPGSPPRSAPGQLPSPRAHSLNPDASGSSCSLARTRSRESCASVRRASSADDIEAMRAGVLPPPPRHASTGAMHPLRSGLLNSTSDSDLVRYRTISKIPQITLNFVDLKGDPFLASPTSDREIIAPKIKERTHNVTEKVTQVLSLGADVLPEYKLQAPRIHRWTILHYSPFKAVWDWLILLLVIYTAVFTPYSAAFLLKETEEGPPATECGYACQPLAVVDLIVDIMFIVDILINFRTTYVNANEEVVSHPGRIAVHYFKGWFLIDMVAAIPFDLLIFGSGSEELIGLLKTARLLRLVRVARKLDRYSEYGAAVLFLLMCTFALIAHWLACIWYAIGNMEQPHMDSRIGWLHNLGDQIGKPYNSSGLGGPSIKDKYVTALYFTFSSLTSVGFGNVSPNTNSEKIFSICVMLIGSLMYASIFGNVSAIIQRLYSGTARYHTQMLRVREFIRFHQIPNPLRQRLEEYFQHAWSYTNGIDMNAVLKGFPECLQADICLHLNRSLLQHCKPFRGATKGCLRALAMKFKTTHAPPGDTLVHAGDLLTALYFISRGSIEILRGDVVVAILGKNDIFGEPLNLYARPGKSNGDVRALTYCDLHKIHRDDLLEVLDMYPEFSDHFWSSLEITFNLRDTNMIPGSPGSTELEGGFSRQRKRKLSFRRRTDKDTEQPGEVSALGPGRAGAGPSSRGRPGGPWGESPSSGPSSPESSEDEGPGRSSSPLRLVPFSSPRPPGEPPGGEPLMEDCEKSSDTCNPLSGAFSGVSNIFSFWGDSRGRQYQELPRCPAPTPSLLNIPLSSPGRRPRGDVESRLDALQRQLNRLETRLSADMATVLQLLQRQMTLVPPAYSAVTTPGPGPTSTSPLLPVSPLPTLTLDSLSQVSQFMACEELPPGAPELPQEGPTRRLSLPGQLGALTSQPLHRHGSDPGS
Delta-type opioid receptor, sequence (P41143 whole entry): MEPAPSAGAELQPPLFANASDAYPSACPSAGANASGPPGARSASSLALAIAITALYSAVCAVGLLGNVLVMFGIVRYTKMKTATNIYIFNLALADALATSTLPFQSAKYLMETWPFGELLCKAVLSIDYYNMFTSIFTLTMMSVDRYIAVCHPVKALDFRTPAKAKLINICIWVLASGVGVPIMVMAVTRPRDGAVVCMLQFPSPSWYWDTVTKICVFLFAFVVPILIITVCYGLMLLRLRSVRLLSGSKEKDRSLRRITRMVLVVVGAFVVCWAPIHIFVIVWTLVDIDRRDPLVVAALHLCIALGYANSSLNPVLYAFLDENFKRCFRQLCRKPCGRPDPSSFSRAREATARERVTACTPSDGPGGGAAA
Cytochrome P450 2C19, sequence (P33261 whole entry): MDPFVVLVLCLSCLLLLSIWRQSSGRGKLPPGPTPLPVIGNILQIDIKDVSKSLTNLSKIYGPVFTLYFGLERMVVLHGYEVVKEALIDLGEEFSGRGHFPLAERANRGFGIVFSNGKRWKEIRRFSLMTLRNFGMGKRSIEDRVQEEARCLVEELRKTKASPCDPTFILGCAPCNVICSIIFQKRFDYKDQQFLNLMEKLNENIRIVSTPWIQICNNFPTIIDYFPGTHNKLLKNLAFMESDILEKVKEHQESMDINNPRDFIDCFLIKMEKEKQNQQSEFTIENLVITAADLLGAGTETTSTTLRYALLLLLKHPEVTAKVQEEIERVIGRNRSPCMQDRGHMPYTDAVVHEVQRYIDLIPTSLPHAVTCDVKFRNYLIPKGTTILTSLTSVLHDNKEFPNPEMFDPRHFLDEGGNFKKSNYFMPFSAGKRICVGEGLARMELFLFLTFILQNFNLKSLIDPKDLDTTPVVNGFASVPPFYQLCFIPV
Cytochrome P450 2D6, sequence (P10635 whole entry): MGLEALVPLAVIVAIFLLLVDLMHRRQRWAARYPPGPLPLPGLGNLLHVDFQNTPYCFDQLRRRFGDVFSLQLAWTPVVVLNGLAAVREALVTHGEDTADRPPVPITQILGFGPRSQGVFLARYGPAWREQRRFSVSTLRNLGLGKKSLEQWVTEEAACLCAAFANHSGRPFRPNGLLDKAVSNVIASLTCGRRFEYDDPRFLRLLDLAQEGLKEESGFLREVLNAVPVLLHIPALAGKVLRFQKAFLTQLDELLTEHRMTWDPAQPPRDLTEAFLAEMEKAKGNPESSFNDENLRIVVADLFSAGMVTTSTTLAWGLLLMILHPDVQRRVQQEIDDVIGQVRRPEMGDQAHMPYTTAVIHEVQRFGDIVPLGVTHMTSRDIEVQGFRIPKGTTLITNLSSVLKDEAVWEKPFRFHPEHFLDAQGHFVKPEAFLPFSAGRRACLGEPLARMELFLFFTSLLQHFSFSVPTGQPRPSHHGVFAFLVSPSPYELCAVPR
Cytochrome P450 2C9, sequence (P11712 whole entry): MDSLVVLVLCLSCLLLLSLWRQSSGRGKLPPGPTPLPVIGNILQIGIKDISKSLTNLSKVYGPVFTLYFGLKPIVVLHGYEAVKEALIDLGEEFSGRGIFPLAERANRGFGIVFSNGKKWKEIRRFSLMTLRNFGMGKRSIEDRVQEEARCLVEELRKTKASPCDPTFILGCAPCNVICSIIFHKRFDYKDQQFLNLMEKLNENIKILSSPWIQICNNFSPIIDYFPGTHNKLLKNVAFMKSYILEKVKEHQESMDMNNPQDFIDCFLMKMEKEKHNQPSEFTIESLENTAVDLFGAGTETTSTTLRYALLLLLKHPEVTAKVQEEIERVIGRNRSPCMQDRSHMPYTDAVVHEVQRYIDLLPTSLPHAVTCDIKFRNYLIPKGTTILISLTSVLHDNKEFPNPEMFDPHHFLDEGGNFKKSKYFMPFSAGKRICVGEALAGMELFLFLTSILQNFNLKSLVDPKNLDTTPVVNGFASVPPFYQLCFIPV
Mu-type opioid receptor, sequence (P35372 whole entry): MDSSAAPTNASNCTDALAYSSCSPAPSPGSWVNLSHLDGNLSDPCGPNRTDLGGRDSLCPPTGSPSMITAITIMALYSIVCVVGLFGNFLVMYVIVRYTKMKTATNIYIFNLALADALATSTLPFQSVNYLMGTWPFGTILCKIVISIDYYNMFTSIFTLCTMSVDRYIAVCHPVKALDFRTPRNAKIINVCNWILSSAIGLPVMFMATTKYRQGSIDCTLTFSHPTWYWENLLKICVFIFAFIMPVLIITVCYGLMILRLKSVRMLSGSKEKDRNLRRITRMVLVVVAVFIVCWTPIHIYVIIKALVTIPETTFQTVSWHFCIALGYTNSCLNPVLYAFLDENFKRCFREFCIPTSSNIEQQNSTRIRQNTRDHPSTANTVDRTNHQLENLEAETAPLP

Structure (SMILES): CC(C)C[C@@H](NC(=O)[C@@H](Cc1ccccc1)NC(=O)[C@@H]1Cc2ccccc2CN1)C(=O)N[C@H](CCCCN)C(=O)N1CCOCC1
- EC50 [1]: > 1 nM

Structure (SMILES): CC(C)C[C@@H](NC(=O)[C@@H](Cc1ccccc1)NC(=O)C1(NCCc2ccccc2)CC1)C(=O)N[C@H](CCCCN)C(=O)N1CCC(N)(C(=O)O)CC1
- EC50 [1]: > 1 nM

Structure (SMILES): CC(C)C[C@@H](NC(=O)[C@@H](Cc1ccccc1)NC(=O)CNCc1ccccc1)C(=O)N[C@H](CCCCN)C(=O)N1CCOCC1
- EC50 [1]: > 1 nM

Structure (SMILES): CC(C)C[C@@H](NC(=O)[C@@H](Cc1ccccc1)NC(=O)CNC[C@@H](c1ccccc1)C(C)C)C(=O)N[C@H](CCCCN)C(=O)N1CCC(N)(C(=O)O)CC1
- EC50 [1]: 0.0095 nM

Structure (SMILES): CC(C)C[C@@H](NC(=O)[C@@H](Cc1ccccc1)NC(=O)CN[C@H]1C[C@@H]1c1ccccc1)C(=O)N[C@H](CCCCN)C(=O)N1CCOCC1
- EC50 [1]: 0.08 nM

Structure (SMILES): CC(C)C[C@@H](NC(=O)[C@@H](Cc1ccccc1)NC(=O)CNC[C@@H](C)c1ccccc1)C(=O)N[C@H](CCCCN)C(=O)N1CCC(N)(C(=O)O)CC1
- EC50 [1]: 0.0155 nM

Structure (SMILES): CC(C)C[C@@H](NC(=O)[C@@H](Cc1ccccc1)NC(=O)CNCCCc1ccccc1)C(=O)N[C@H](CCCCN)C(=O)N1CCOCC1
- EC50 [1]: 0.045 nM

Structure (SMILES): CC(C)C[C@@H](NC(=O)[C@@H](Cc1ccccc1)NC(=O)[C@@H](C)NCCc1ccccc1)C(=O)N[C@H](CCCCN)C(=O)N1CCC(N)(C(=O)O)CC1
- EC50 [1]: > 1 nM

Structure (SMILES): CC(C)C[C@@H](NC(=O)[C@@H](Cc1ccccc1)NC(=O)CNCC1(c2ccccc2)CC1)C(=O)N[C@H](CCCCN)C(=O)N1CCC(N)(C(=O)O)CC1
- EC50 [1]: 0.057 nM

Structure (SMILES): CC(C)C[C@@H](NC(=O)[C@@H](Cc1ccccc1)NC(=O)CNCCc1ccccc1)C(=O)N[C@H](CCCCN)C(=O)N1CCOCC1
- EC50 [1]: 0.048 nM

Structure (SMILES): CC(C)C[C@@H](NC(=O)[C@@H](Cc1ccccc1)NC(=O)CNCC(C)(C)c1ccccc1)C(=O)N[C@H](CCCCN)C(=O)N1CCC(N)(C(=O)O)CC1
- EC50 [1]: 0.078 nM

Structure (SMILES): CNC(=O)NC1CCN(C(=O)[C@@H](CCCCN)NC(=O)[C@@H](CC(C)C)NC(=O)[C@@H](Cc2ccccc2)NC(=O)CNC[C@H](C)c2ccccc2)CC1 (H-[Gly(N-(2R-Ph-propyl))][dF][dL][dK]-X1)
- EC50 [1]: 0.00053 nM
- EC50 [2]: > 50000 nM
- EC50 (Mu-type opioid receptor): > 50000 nM
- half-life [3]: 0.667 h
- half-life [4]: > 4.47 h
- half-life [5]: 1.92 h
- IC50 (Cytochrome P450 1A2): > 30000 nM
- IC50 (Cytochrome P450 2C9): > 30000 nM
- IC50 (Cytochrome P450 2D6): > 30000 nM
- IC50 (Cytochrome P450 3A4 [6]): > 30000 nM
- IC50 (Cytochrome P450 3A4 [7]): > 30000 nM
- IC50 (Cytochrome P450 2C19): > 30000 nM
- IC50 [8]: > 30000 nM
- fraction unbound [9]: 0.211
- fraction unbound [10]: 0.0258
- Cp [11]: 1144 ng/mL
- Ct [12]: 57.2 ng/g
- Kp uu [13]: 0.006
- AUC(0-t) at 24 h [14]: 1660 ng·h/mL
- half-life [15]: 0.34 h
- clearance [16]: 10.1 mL/min/kg
- Vd [17]: 0.297 L/kg
- AUC(0-t) at 24 h [18]: 1550 ng·h/mL
- half-life [19]: 4.78 h
- clearance [20]: 10.5 mL/min/kg
- Vd [21]: 4.51 L/kg
- AUC(0-t) at 24 h [22]: 2620 ng·h/mL
- half-life [23]: 4.45 h
- clearance [24]: 3.1 mL/min/kg
- Vd [25]: 1.24 L/kg
- Activity (Rattus norvegicus [26]): Dose-dependent effect
- Activity (Rattus norvegicus [27]): 28.9%
- Activity (Rattus norvegicus [28]): 66.7%
- half-life [29]: 3.6 h

Structure (SMILES): CC(C)C[C@@H](NC(=O)[C@@H](Cc1ccccc1)NC(=O)CNCCc1ccccc1)C(=O)N[C@H](CCCCN)C(=O)N1CCC(N)(C(=O)O)CC1 (H-[Gly(NCH2CH2Ph)][dF][dL][dK]-{Piperidin1yl(4-NH2,4-COOH)})
- EC50 [1]: 0.054 nM

Structure (SMILES): CC(C)C[C@@H](NC(=O)[C@@H](Cc1ccccc1)NC(=O)CNC1Cc2ccccc2C1)C(=O)N[C@H](CCCCN)C(=O)N1CCOCC1 (H-[N(Indan-2-yl)Gly][dF][dL][dK]-Morpholide)
- EC50 [1]: > 1 nM

Structure (SMILES): CCC(CNCC(=O)N[C@H](Cc1ccccc1)C(=O)N[C@H](CC(C)C)C(=O)N[C@H](CCCCN)C(=O)N1CCC(N)(C(=O)O)CC1)c1ccccc1 (mixture of isomers)
- EC50 [1]: 0.0029 nM

Structure (SMILES): CC(C)C[C@@H](NC(=O)[C@@H](Cc1ccccc1)NC(=O)[C@H](N)Cc1ccccc1)C(=O)N[C@H](CCCCN)C(=O)N1CCC(N)(C(=O)O)CC1 [DIFELIKEFALIN]
- EC50 [1]: 0.00262 nM
- Activity (Rattus norvegicus [28]): 61.9%

Structure (SMILES): CC(C)C[C@@H](NC(=O)[C@@H](Cc1ccccc1)NC(=O)CNC[C@H](C)c1ccccc1)C(=O)N[C@H](CCCCN)C(=O)N1CCC(N)(C(=O)O)CC1 [RIMINKEFON]
- EC50 [1]: 0.0014 nM
